Tests used:
[1] = logP by HPLC on reversed phase columns (EEC directive 79/831 Annex V.A8); assay type: physicochemical; conditions: method [a]: LC-MS at pH 2.7, 0.1% formic acid in water / acetonitrile
Method: Measurement of log P values was performed according EEC directive 79/831 Annex V.A8 by HPLC (High Performance Liquid Chromatography) on reversed phase columns with the following methods: ^[a] Measurement of LC-MS was done at pH 2.7 with 0.1% formic acid in water and with acetonitrile (contains 0.1% formic acid) as eluent with a linear gradient from 10% acetonitrile to 95% acetonitrile. ^[b] Measurement with LC-MS was done at pH 7.8 with 0.001 molar ammonium hydrogen carbonate solution in water as eluent with a linear gradient from 10% acetonitrile to 95% acetonitrile.

[2] = tested on: Puccinia recondita; assay: In vivo preventive test on Puccinia recondita (brown rust on wheat); conditions: wheat plants, preventive spray, grading 12 days after contamination
Method: (§1) The active ingredients tested are prepared by homogenization in a mixture of acetone/tween/DMSO, and then diluted with water to obtain the desired active material concentration.
Wheat plants (“Scipion” variety), sown in starter cups on a 50/50 peat soil-pozzolana substrate and grown at 22° C., are treated at the 1-leaf stage (10 cm height) by spraying with the active ingredient prepared as described above. Plants, used as controls, are treated with the mixture of acetone/tween/DMSO/water not containing the active material.
(§2) After 24 hours, the plants are contaminated by spraying the leaves with an aqueous suspension of Puccinia condita spores (100 000 spores per ml). The spores are collected from an infected plant and are suspended in water containing 2.5 ml/l of Tween 80 at 10%. The contaminated wheat plants are incubated for 24 hours at 20° C. and at 100% relative humidity, and then for 10 days at 20° C. and at 70-80% relative humidity.
(§3) Grading (% of efficacy) is carried out 12 days after the contamination, in comparison with the control plants.

[3] = tested on: Uromyces appendiculatus; assay: In vivo preventive test on Uromyces appendiculatus (bean rust); conditions: bean plants, preventive spray, grading 11 days after contamination
Method: as §1
Bean plants (“Saxa” variety), sown in starter cups on a 50/50 peat soil-pozzolana substrate and grown at 24° C., are treated at the 2-leaf stage (9 cm height) by spraying with the active ingredient prepared as described above. Plants, used as controls, are treated with the mixture of acetone/tween/DMSO/water not containing the active material.
as §2, with “of Uromyces appendiculatus” for “of Puccinia condita”, “spores (150” for “spores (100”, “from” for “from an”, “infected plants” for “infected plant”, “contaminated bean” for “contaminated wheat”
Grading (% of efficacy) is carried out 11 days after the contamination, in comparison with the control plants.

[4] = tested on: Botrytis cinerea; assay: In vivo preventive test on Botrytis cinerea (grey mould), gherkin plants; conditions: preventive spray, grading 4 to 5 days after contamination
Method: (§4) The active ingredients tested are prepared by homogenization in a mixture of acetone/tween/DMSO and then diluted with water to obtain the desired active material concentration.
(§5) Gherkin plants (“Vert petit de Paris” variety), sown in starter cups on a 50/50 peat soil-pozzolana substrate and grown at 24° C., are treated at the Z11 cotyledon stage by spraying with the active ingredient prepared as described above. Plants, used as controls, are treated with the mixture of acetone/tween/DMSO/water not containing the active material.
After 24 hours, the plants are contaminated by spraying the cotyledons with an aqueous suspension of cryopreserved Botrytis cinerea spores (50 000 spores per ml). The spores are suspended in a nutrient solution composed of 10 g/L of PDB, 50 g/L of D-Fructose, 2 g/L of NH4NO3 and 1 g/L of KH2PO4. The contaminated gherkin plants are incubated at 17° C. and at 90% relative humidity.
Grading (% of efficacy) is carried out 4 to 5 days after the contamination, in comparison with the control plants.

[5] = tested on: Pyrenophora teres; assay: In vivo preventive test on Pyrenophora teres (net blotch on barley); conditions: barley plants, preventive spray, grading 14 days after contamination
Method: Barley plants (“Plaisant” variety), sown in starter cups on a 50/50 peat soil-pozzolana substrate and grown at 22° C., are treated at the 1-leaf stage (10 cm height) by spraying with the active ingredient prepared as described above. Plants, used as controls, are treated with the mixture of acetone/tween/DMSO/water not containing the active material. After 24 hours, the plants are contaminated by spraying the leaves with an aqueous suspension of Pyrenophora teres spores (12 000 spores per ml). The spores are collected from a 12-day-old culture. The contaminated barley plants are incubated for 48 hours at 20° C. and at 100% relative humidity, and then for 12 days at 20° C. at 70-80% relative humidity. Grading (% of efficacy) is carried out 14 days after the contamination, in comparison with the control plants.

[6] = tested on: Septoria tritici; assay: In vivo preventive test on Septoria tritici (leaf spot on wheat); conditions: 500 ppm, wheat plants, preventive spray, grading 24 days after contamination
Method: Wheat plants (“Scipion” variety), sown in starter cups on a 50/50 peat soil-pozzolana substrate and grown at 22° C., are treated at the 1-leaf stage (10 cm height) by spraying with the active ingredient prepared as described above. Plants, used as controls, are treated with the mixture of acetone/tween/DMSO/water not containing the active material. After 24 hours, the plants are contaminated by spraying the leaves with an aqueous suspension of cryopreserved Septoria tritici spores (500 000 spores per ml). The contaminated wheat plants are incubated for 72 hours at 18° C. and at 100% relative humidity, and then for 21 days at 90% relative humidity. Grading (% of efficacy) is carried out 24 days after the contamination, in comparison with the control plants.

[7] = tested on: Sphaerotheca fuliginea; assay: In vivo preventive test on Sphaerotheca fuliginea (powdery mildew on cucurbits); conditions: gherkin plants, preventive spray, grading 12 days after contamination
Method: as §4, §5
After 24 hours, the plants are contaminated by spraying the cotyledons with an aqueous suspension of Sphaerotheca fuliginea spores (100 000 spores per ml). The spores are collected from infected plants. The contaminated gherkin plants are incubated at about 20° C. and at 70-80% relative humidity.
as §3

[8] = tested on: Alternaria brassicae; assay: In vivo preventive test on Alternaria brassicae (leaf spot on radish); conditions: radish plants, preventive spray, grading 6 days after contamination
Method: Radish plants (“Pernod Clair” variety), sown in starter cups on a 50/50 peat soil-pozzolana substrate and grown at 17° C., are treated at the cotyledon stage by spraying with the active ingredient prepared as described above. Plants, used as controls, are treated with the mixture of acetone/tween/DMSO/water not containing the active material. After 24 hours, the plants are contaminated by spraying the cotyledons with an aqueous suspension of Alternaria brassicae spores (50 000 spores per ml). The spores are collected from a 15-day-old culture. The contaminated radish plants are incubated at 20° C. and at 100% relative humidity. Grading (% of efficacy) is carried out 6 days after the contamination, in comparison with the control plants.

SMILES	logP [1]	Eff. % ([2]; 500 ppm) [%]	Eff. % ([3]; 500 ppm) [%]	Eff. % [6] [%]	Eff. % ([7]; 500 ppm) [%]	also measured
Cn1nc(C(F)F)c(C(=O)Nc2cccc3c2COC3(C)C)c1F [Example 3]	2.35[a]	100	100			
CCC1(CC)OC(C)c2c(NC(=O)c3cn(C)nc3C(F)F)cccc21 (stereo not drawn) [Example 6]	2.9[a]		100	100	100	Eff. % ([4]; 500 ppm): 100%; Eff. % ([5]; 500 ppm): 92%
Cn1cc(C(=O)Nc2cccc3c2COC3(C)C)c(C(F)F)n1 [Example 7]	2.1[a]	98	100			
CCC1(CC)OC(C(C)C)c2c(NC(=O)c3c(C(F)F)nn(C)c3F)cccc21 (stereo not drawn) [Example 8]	4.06[a]	98	100	86	100	Eff. % ([8]; 500 ppm): 83%
CC1OC(C)(C)c2cccc(NC(=O)c3cn(C)nc3C(F)F)c21 (stereo not drawn) [Example 10]	2.15[a]	94	95			
CCC1(CC)OC(C(C)C)c2c(NC(=O)c3cn(C)nc3C(F)F)cccc21 (stereo not drawn) [Example 12]	3.63[a]	94	100	86	100	Eff. % ([8]; 500 ppm): 78%

Second part, led by results:

logP [1]	SMILES	Eff. % ([2]; 500 ppm) [%]	Eff. % ([3]; 500 ppm) [%]	Eff. % [6] [%]	Eff. % ([7]; 500 ppm) [%]	also measured
2.55[a]	Cn1nc(C(F)F)c(C(=O)Nc2cccc3c2COC3(C)C)c1Cl [Example 4]	100	100			
2.64[a]	CC1OC(C)(C)c2cccc(NC(=O)c3c(C(F)F)nn(C)c3Br)c21 (stereo not drawn) [Example 5]	97	100			
3.48[a]	CCC1(CC)OC(C)c2c(NC(=O)c3c(C(F)F)nn(C)c3Cl)cccc21 (stereo not drawn) [Example 9]	100	100	93	94	
3.33[a]	CC(C)C1OC(C)(C)c2cccc(NC(=O)c3c(C(F)F)nn(C)c3Cl)c21 (stereo not drawn) [Example 14]					Eff. % ([8]; 100 ppm): 75%; Eff. % ([4]; 100 ppm): 93%; Eff. % ([5]; 100 ppm): 92%; Eff. % ([2]; 100 ppm): 98%; Eff. % ([7]; 100 ppm): 100%; Eff. % ([3]; 100 ppm): 100%
2.94[a]	CCC1OC(C)(C)c2cccc(NC(=O)c3c(C(F)F)nn(C)c3Cl)c21 (stereo not drawn) [Example 15]					Eff. % ([8]; 100 ppm): 75%; Eff. % ([5]; 100 ppm): 92%; Eff. % ([2]; 100 ppm): 100%; Eff. % ([7]; 100 ppm): 98%; Eff. % ([3]; 100 ppm): 100%

— US9375006B2, “5- halogenopyrazole benzofuranyl carboxamides” (BAYER CROPSCIENCE AG, priority 2012, dated 2016)
